Reference: article PMC7326016, “Structural Studies of Glutamate Dehydrogenase (Isoform 1) From Arabidopsis thaliana, an Important Enzyme at the Branch-Point Between Carbon and Nitrogen Metabolism” (Frontiers in Plant Science, 2020)

How the values were obtained:
[1] = target: T1, Glutamate dehydrogenase isoform 1 (AtGDH1) (Arabidopsis thaliana, UniProt Q43314); test: crystal structure at […] Å (one closed subunit; ligand captured from E. coli; polder map); type: binding
T1 construct: gene GDH1; full-length, 411 residues, homohexamer
T1 sequence (Q43314 whole entry, canonical isoform): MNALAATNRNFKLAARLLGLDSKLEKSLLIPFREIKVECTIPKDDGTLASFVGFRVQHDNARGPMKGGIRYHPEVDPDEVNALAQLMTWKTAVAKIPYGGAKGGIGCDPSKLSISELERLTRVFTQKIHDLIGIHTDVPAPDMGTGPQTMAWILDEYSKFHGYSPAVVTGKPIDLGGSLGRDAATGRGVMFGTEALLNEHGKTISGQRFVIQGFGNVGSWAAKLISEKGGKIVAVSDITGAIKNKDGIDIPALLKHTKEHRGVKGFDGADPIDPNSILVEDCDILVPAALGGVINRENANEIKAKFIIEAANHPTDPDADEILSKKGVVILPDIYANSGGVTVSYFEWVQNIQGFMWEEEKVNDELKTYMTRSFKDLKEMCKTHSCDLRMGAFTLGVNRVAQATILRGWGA

[2] = target: T1, Glutamate dehydrogenase isoform 1 (AtGDH1); test: ITC (in presence of […] 2OG) and crystal structure at […] Å; type: binding

Kd [2] | SMILES | crystal structure at 2.03 Å (one closed subunit); ligand captured from E. coli; p [1]
 | O=C(O)CCC(=O)C(=O)O [2-oxoglutarate] | the closed conformation subunit contains 2OG, the GDH reaction product, bound in the active site
72 ± 6 µM | NC(=O)c1ccc[n+]([C@@H]2O[C@H](COP(=O)([O-])OP(=O)(O)OC[C@H]3O[C@@H](n4cnc5c(N)ncnc54)[C@H](O)[C@@H]3O)[C@@H](O)[C@H]2O)c1 [NAD^+] | 
